Numbered stars: 1 amine (or outer) side, 2 acyl side, 3 side chain; on linkers, the order of the positions; unused ones are H or OH. Bridge positions count the residues as written; N and C are the ends. Square brackets hold non-standard residues; d marks the D form. Peptide text beside a SMILES is read from it. * marks the point of attachment. C20 diacid = O=C(O)CCCCCCCCCCCCCCCCCCC(=O)*; γGlu = O=C(O)[C@H](CCC(=O)[*:2])N[*:1]; Hyp = O=C(O)[C@@H]1C[C@@H](O)CN1
Tests used:
hAMY3 receptor = biological target: T1, hAMY3 receptor (Homo sapiens, UniProt O60896+P30988); assay: cAMP assay for in vitro receptor activation, hAMY3-R; type: cell-based; settings: cAMP assay, hAMY3 receptor; read-out: hAMY3R EC50
T1 sequence (P30988 25-474): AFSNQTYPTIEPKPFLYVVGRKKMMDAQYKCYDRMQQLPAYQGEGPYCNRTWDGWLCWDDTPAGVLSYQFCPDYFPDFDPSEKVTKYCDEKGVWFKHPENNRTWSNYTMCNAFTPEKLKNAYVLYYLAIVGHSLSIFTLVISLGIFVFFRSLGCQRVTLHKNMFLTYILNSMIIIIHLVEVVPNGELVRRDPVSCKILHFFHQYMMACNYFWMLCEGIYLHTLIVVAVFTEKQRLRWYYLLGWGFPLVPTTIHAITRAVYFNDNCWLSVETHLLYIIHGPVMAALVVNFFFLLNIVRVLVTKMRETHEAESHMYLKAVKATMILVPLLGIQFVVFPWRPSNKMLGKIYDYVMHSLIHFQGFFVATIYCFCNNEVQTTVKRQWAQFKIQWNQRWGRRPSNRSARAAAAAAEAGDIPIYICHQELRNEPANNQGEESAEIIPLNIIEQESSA
T1 sequence (O60896 24-148 partner): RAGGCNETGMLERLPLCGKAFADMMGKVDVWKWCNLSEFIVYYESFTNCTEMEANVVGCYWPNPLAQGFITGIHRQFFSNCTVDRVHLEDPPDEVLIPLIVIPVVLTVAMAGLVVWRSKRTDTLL
Outline: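 Receptor activation was measured as cAMP accumulation in a monoclonal cell line stably overexpressing hAMY3. Stimulation with graded doses lasted 30 min at room temperature in the presence of 0.5 mM IBMX, with human amylin as positive control.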

hAM1 receptor = hAM1 receptor (Homo sapiens, UniProt O60895+Q16602); assay: cAMP assay for in vitro receptor activation, hAM1-R; type: cell-based; settings: cAMP assay, hAM1 receptor; read-out: hAM1R EC50
Outline: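 cAMP accumulation was measured in a monoclonal cell line stably overexpressing the hAM1 receptor. Frozen aliquots were thawed and plated at 8000 cells/well in DPBS containing 0.05% casein and 0.5 mM IBMX.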

hAM1 receptor, sequence (Q16602 23-461): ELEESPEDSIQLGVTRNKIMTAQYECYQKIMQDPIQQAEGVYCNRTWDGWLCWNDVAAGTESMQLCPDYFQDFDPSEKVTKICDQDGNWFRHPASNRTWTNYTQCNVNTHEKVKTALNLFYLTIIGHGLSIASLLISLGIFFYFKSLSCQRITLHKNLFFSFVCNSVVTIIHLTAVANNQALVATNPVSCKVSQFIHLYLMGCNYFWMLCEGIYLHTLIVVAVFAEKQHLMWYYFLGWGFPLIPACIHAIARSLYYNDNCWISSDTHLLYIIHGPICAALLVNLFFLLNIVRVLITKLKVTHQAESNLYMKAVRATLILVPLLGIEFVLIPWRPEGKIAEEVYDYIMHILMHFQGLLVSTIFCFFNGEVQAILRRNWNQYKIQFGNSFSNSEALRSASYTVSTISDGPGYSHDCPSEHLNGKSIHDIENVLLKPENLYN
hAM1 receptor, sequence (O60895 43-175 partner): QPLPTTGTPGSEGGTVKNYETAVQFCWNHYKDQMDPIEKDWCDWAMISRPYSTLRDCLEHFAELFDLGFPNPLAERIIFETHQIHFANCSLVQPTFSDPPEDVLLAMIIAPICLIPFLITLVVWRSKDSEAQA

SMILES	EC50 (hAMY3 receptor)	EC50 (hAM1 receptor)
CC[C@H](C)[C@H](NC(=O)[C@H](CCC(N)=O)NC(=O)[C@H](Cc1c[nH]cn1)NC(=O)[C@H](C)NC(=O)[C@H](CC(C)C)NC(=O)[C@H](CCCNC(=N)N)NC(=O)[C@H](CCC(N)=O)NC(=O)[C@@H](NC(=O)[C@@H](NC(=O)[C@@H]1CSSC[C@H](NC(=O)[C@H](CCCCN)NC(=O)CC[C@H](NC(=O)CCCCCCCCCCCCCCCCCCC(=O)O)C(=O)O)C(=O)N[C@@H](CC(N)=O)C(=O)N[C@@H]([C@@H](C)O)C(=O)N[C@@H](C)C(=O)N[C@@H]([C@@H](C)O)C(=O)N1)[C@@H](C)O)C(C)C)C(=O)N[C@@H](C)C(=O)N[C@@H](CCC(N)=O)C(=O)N[C@@H](Cc1ccccc1)C(=O)N[C@H](C(=O)N[C@@H](CC(=O)O)C(=O)N[C@@H](CCCCN)C(=O)N[C@@H](CC(=O)O)C(=O)N[C@@H](CCCCN)C(=O)N[C@@H](CC(=O)O)C(=O)N1CCC[C@H]1C(=O)N[C@H](C(=O)N[C@@H](C)C(=O)N1CCC[C@H]1C(=O)N1CCC[C@H]1C(=O)N[C@H](C(=O)N[C@@H](CC(N)=O)C(=O)N[C@H](C(=O)NCC(=O)N[C@@H](CO)C(=O)N[C@@H](CC(N)=O)C(=O)N[C@@H](CO)C(=O)N1C[C@H](O)C[C@H]1C(N)=O)C(C)C)[C@@H](C)O)C(C)C)[C@@H](C)O [compound 120] ({C20 diacid-γGlu}-KCNTATCTVQRLAHQIAQFTDKDKDPVAPPTNVGSNS[Hyp]-NH2; disulfide 2-7)	0.025 nM	> 5000 nM
CC[C@H](C)[C@H](NC(=O)[C@H](CCCCN)NC(=O)[C@@H](NC(=O)[C@H](CCCNC(=N)N)NC(=O)[C@@H]1CCCN1C(=O)[C@H](C)NC(=O)[C@@H](NC(=O)[C@H](CC(N)=O)NC(=O)[C@H](CC(=O)O)NC(=O)[C@H](CCCCN)NC(=O)[C@H](CC(=O)O)NC(=O)[C@H](CCCCN)NC(=O)[C@H](CC(=O)O)NC(=O)[C@@H](NC(=O)[C@H](Cc1ccccc1)NC(=O)[C@H](CCC(N)=O)NC(=O)[C@H](Cc1ccc(O)cc1)NC(=O)[C@H](CC(C)C)NC(=O)[C@H](Cc1ccccc1)NC(=O)[C@H](Cc1c[nH]cn1)NC(=O)[C@H](C)NC(=O)[C@H](CC(C)C)NC(=O)[C@H](CCCNC(=N)N)NC(=O)[C@H](CCC(N)=O)NC(=O)[C@@H](NC(=O)[C@@H](NC(=O)[C@@H]1CSSC[C@H](NC(=O)CN)C(=O)N[C@@H](CCCNC(=N)N)C(=O)N[C@@H](Cc2ccccc2)C(=O)NCC(=O)N[C@@H]([C@@H](C)O)C(=O)N1)[C@@H](C)O)C(C)C)[C@@H](C)O)C(C)C)[C@@H](C)O)C(=O)NCC(=O)N[C@@H](CO)C(=O)N[C@@H](CC(N)=O)C(=O)NCC(=O)N[C@@H](Cc1ccc(O)cc1)C(N)=O [compound 376] (H-GCRFGTCTVQRLAHFLYQFTDKDKDNVAPRTKIGSNGY-NH2; disulfide 2-7; N-terminus assumed)	0.022 nM	12 nM

Next, values leading:

EC50 (hAMY3 receptor)	EC50 (hAM1 receptor)	SMILES
0.013 nM	116 nM	CC[C@H](C)[C@H](NC(=O)[C@H](CCC(N)=O)NC(=O)[C@H](Cc1c[nH]cn1)NC(=O)[C@H](C)NC(=O)[C@H](CC(C)C)NC(=O)[C@H](CCCNC(=N)N)NC(=O)[C@H](CCC(N)=O)NC(=O)[C@@H](NC(=O)[C@@H](NC(=O)[C@@H]1CSSC[C@H](NC(=O)[C@H](CCCCN)NC(=O)CC[C@H](NC(=O)CCCCCCCCCCCCCCCCCCC(=O)O)C(=O)O)C(=O)N[C@@H](CC(N)=O)C(=O)N[C@@H](Cc2ccccc2)C(=O)N[C@@H](C)C(=O)N[C@@H]([C@@H](C)O)C(=O)N1)[C@@H](C)O)C(C)C)C(=O)N[C@@H](Cc1ccc(O)cc1)C(=O)N[C@@H](CCC(N)=O)C(=O)N[C@@H](Cc1ccccc1)C(=O)N[C@H](C(=O)N[C@@H](CC(=O)O)C(=O)N[C@@H](CCCCN)C(=O)N[C@@H](CC(=O)O)C(=O)N[C@@H](CCCCN)C(=O)N[C@@H](CC(=O)O)C(=O)N[C@@H](CC(N)=O)C(=O)N[C@H](C(=O)N[C@@H](C)C(=O)N1CCC[C@H]1C(=O)N[C@@H](CCCNC(=N)N)C(=O)N[C@H](C(=O)N[C@@H](CCC(=O)O)C(=O)N[C@H](C(=O)NCC(=O)N[C@@H](CO)C(=O)N[C@@H](CC(N)=O)C(=O)NCC(=O)N1C[C@H](O)C[C@H]1C(N)=O)C(C)C)[C@@H](C)O)C(C)C)[C@@H](C)O [compound 67] ({C20 diacid-γGlu}-KCNFATCTVQRLAHQIYQFTDKDKDNVAPRTEVGSNG[Hyp]-NH2; disulfide 2-7)
0.034 nM	> 5000 nM	CC[C@H](C)[C@H](NC(=O)[C@H](CCC(N)=O)NC(=O)[C@H](Cc1c[nH]cn1)NC(=O)[C@H](C)NC(=O)[C@H](CC(C)C)NC(=O)[C@H](CCCNC(=N)N)NC(=O)[C@H](C)NC(=O)[C@@H](NC(=O)[C@@H](NC(=O)[C@@H]1CSSC[C@H](NC(=O)[C@H](CCCCN)NC(=O)CC[C@H](NC(=O)CCCCCCCCCCCCCCCCCCC(=O)O)C(=O)O)C(=O)N[C@@H](CC(N)=O)C(=O)N[C@@H]([C@@H](C)O)C(=O)N[C@@H](C)C(=O)N[C@@H]([C@@H](C)O)C(=O)N1)[C@@H](C)O)C(C)C)C(=O)N[C@@H](CC(N)=O)C(=O)N[C@@H](CCC(N)=O)C(=O)N[C@@H](Cc1ccccc1)C(=O)N[C@H](C(=O)N[C@@H](CC(=O)O)C(=O)N[C@@H](CCCCN)C(=O)N[C@@H](CC(=O)O)C(=O)N[C@@H](CCCCN)C(=O)N[C@@H](CC(=O)O)C(=O)N1CCC[C@H]1C(=O)N[C@H](C(=O)N[C@@H](C)C(=O)N1CCC[C@H]1C(=O)N1CCC[C@H]1C(=O)N[C@H](C(=O)N[C@@H](CC(N)=O)C(=O)N[C@H](C(=O)NCC(=O)N[C@@H](CO)C(=O)N[C@@H](CC(N)=O)C(=O)NCC(=O)N1C[C@H](O)C[C@H]1C(N)=O)C(C)C)[C@@H](C)O)C(C)C)[C@@H](C)O [compound 137] ({C20 diacid-γGlu}-KCNTATCTVARLAHQINQFTDKDKDPVAPPTNVGSNG[Hyp]-NH2; disulfide 2-7)
0.007 nM	> 5000 nM	CC[C@H](C)[C@H](NC(=O)[C@H](CCC(N)=O)NC(=O)[C@H](Cc1c[nH]cn1)NC(=O)[C@H](C)NC(=O)[C@H](CC(C)C)NC(=O)[C@H](CCCNC(=N)N)NC(=O)[C@H](CCC(N)=O)NC(=O)[C@@H](NC(=O)[C@@H](NC(=O)[C@@H]1CSSC[C@H](NC(=O)[C@H](CCCCN)NC(=O)CC[C@H](NC(=O)CCCCCCCCCCCCCCCCCCC(=O)O)C(=O)O)C(=O)N[C@@H](CC(N)=O)C(=O)N[C@@H]([C@@H](C)O)C(=O)N[C@@H](C)C(=O)N[C@@H]([C@@H](C)O)C(=O)N1)[C@@H](C)O)C(C)C)C(=O)N[C@@H](CC(N)=O)C(=O)N[C@@H](CCC(N)=O)C(=O)N[C@@H](Cc1ccccc1)C(=O)N[C@H](C(=O)N[C@@H](CC(=O)O)C(=O)N[C@@H](CCCCN)C(=O)N[C@@H](CC(=O)O)C(=O)N[C@@H](CCCCN)C(=O)N[C@@H](CC(=O)O)C(=O)N[C@@H](CC(N)=O)C(=O)N[C@H](C(=O)N[C@@H](C)C(=O)N1CCC[C@H]1C(=O)N1CCC[C@H]1C(=O)N[C@H](C(=O)N[C@@H](CC(N)=O)C(=O)N[C@H](C(=O)NCC(=O)N[C@@H](CO)C(=O)N[C@@H](CC(N)=O)C(=O)NCC(=O)N1C[C@H](O)C[C@H]1C(N)=O)C(C)C)[C@@H](C)O)C(C)C)[C@@H](C)O [compound 11] ({C20 diacid-γGlu}-KCNTATCTVQRLAHQINQFTDKDKDNVAPPTNVGSNG[Hyp]-NH2; disulfide 2-7)

From US12139520B2 (priority 2020, dated 2024)
